{"source": "paper PMC11995724", "about": "“Antibiotic target discovery by integrated phenotypic and activity-based profiling of electrophilic fragments” (Cell chemical biology, 2025)", "note": "Where a name gives a salt, the structure may show the parent alone.", "data": [{"test": "in vitro", "conditions": "human, hek293t cells", "units": {"viability at 48 h, 25 µM": "%"}, "values": [{"smiles": "O=C(CCl)N1N=C(c2ccccc2)CC1c1ccc2nccnc2c1", "note": "(stereo not shown) [4-A22, 2-chloro-1-[3-phenyl-5-(quinoxalin-6-yl)-4,5-dihydro-1H-pyrazol-1-yl]ethan-1-one]", "viability at 48 h, 25 µM": 0.127}, {"smiles": "CC(NC(=O)CCl)c1ccc2c(c1)CCCC2", "note": "(stereo not shown) [4-B03, 2-chloro-N-[1-(5,6,7,8-tetrahydronaphthalen-2-yl)ethyl]acetamide]", "viability at 48 h, 25 µM": 1.06}, {"smiles": "O=C(CCl)Nc1cc(C(=O)O)cc(C(=O)O)c1", "note": "[4-B04, 5-(2-chloroacetamido)benzene-1,3-dicarboxylic acid]", "viability at 48 h, 25 µM": 107}, {"smiles": "CN(CC(=O)Nc1ccc(F)cc1)C(=O)CCl", "note": "[4-B05, 2-chloro-N-{[(4-fluorophenyl)carbamoyl]methyl}-N-methylacetamide]", "viability at 48 h, 25 µM": 0.41}, {"smiles": "O=C(CCl)Nc1cc(Cl)c(Cl)cc1Cl", "note": "[4-B06, 2-chloro-N-(2,4,5-trichlorophenyl)acetamide]", "viability at 48 h, 25 µM": 0.135}, {"smiles": "CC(NC(=O)c1ccccc1NC(=O)CCl)c1ccccc1", "note": "(stereo not shown) [4-B07, 2-(2-chloroacetamido)-N-(1-phenylethyl)benzamide]", "viability at 48 h, 25 µM": 0.478}, {"smiles": "COc1ccc(NC(=O)CCl)cc1S(=O)(=O)N1CCCCC1", "note": "[4-B08, 2-chloro-N-[4-methoxy-3-(piperidine-1-sulfonyl)phenyl]acetamide]", "viability at 48 h, 25 µM": 0.454}, {"smiles": "Cc1cccc(Cc2cnc(NC(=O)CCl)s2)c1", "note": "[4-B09, 2-chloro-N-{5-[(3-methylphenyl)methyl]-1,3-thiazol-2-yl}acetamide]", "viability at 48 h, 25 µM": -0.447}, {"smiles": "O=C(CCl)Nc1ccc(SC(F)F)cc1", "note": "[4-B10, 2-chloro-N-{4-[(difluoromethyl)sulfanyl]phenyl}acetamide]", "viability at 48 h, 25 µM": -0.0257}, {"smiles": "O=C(CCl)N(Cc1ccc(F)cc1)C12CC3CC(CC(C3)C1)C2", "note": "[4-B11, N-(adamantan-1-yl)-2-chloro-N-[(4-fluorophenyl)methyl]acetamide]", "viability at 48 h, 25 µM": -0.169}, {"smiles": "O=C(CCl)Nc1ccc2ccccc2c1", "note": "[4-B12, 2-chloro-N-(naphthalen-2-yl)acetamide]", "viability at 48 h, 25 µM": 0.59}, {"smiles": "Cc1ccc(C(=O)CN(C(=O)CCl)c2ccccc2)cc1", "note": "[4-B13, 2-chloro-N-[2-(4-methylphenyl)-2-oxoethyl]-N-phenylacetamide]", "viability at 48 h, 25 µM": 0.038}, {"smiles": "O=C(CCl)Nc1ccc(S(=O)(=O)Nc2nccs2)cc1", "note": "[4-B14, 2-chloro-N-{4-[(1,3-thiazol-2-yl)sulfamoyl]phenyl}acetamide]", "viability at 48 h, 25 µM": 1.19}, {"smiles": "CC(Cl)C(=O)Nc1c(C(C)C)cccc1C(C)C", "note": "(stereo not shown) [4-B15, N-[2,6-bis(propan-2-yl)phenyl]-2-chloropropanamide]", "viability at 48 h, 25 µM": 93.3}, {"smiles": "CC(Cl)C(=O)Nc1c(Cl)cccc1Cl", "note": "(stereo not shown) [4-B16, 2-chloro-N-(2,6-dichlorophenyl)propanamide]", "viability at 48 h, 25 µM": 128}, {"smiles": "CCOC(=O)c1ccccc1NC(=O)CCl", "note": "[4-B17, ethyl 2-(2-chloroacetamido)benzoate]", "viability at 48 h, 25 µM": 45.3}, {"smiles": "O=C(CCl)Nc1ccccc1S(=O)(=O)C(F)F", "note": "[4-B18, 2-chloro-N-(2-difluoromethanesulfonylphenyl)acetamide]", "viability at 48 h, 25 µM": 38.2}, {"smiles": "Cc1ccc(C(=O)c2ccccc2)c(NC(=O)CCl)c1", "note": "[4-B19, N-(2-benzoyl-5-methylphenyl)-2-chloroacetamide]", "viability at 48 h, 25 µM": 0.105}, {"smiles": "O=C(CCl)N(Cc1ccccc1)CC(F)(F)F", "note": "[4-B20, N-benzyl-2-chloro-N-(2,2,2-trifluoroethyl)acetamide]", "viability at 48 h, 25 µM": 1.12}, {"smiles": "CN(C)C(CNC(=O)CCl)c1ccccc1", "note": "(stereo not shown) [4-B21, 2-chloro-N-[2-(dimethylamino)-2-phenylethyl]acetamide hydrochloride]", "viability at 48 h, 25 µM": 79.8}, {"smiles": "N#Cc1nc(-c2ccco2)oc1N1CCN(C(=O)CCl)CC1", "note": "[4-B22, 5-[4-(2-chloroacetyl)piperazin-1-yl]-2-(furan-2-yl)-1,3-oxazole-4-carbonitrile]", "viability at 48 h, 25 µM": 0.503}, {"smiles": "O=C(CCl)Nc1ccccc1C(=O)NCc1ccccc1", "note": "[4-C03, N-benzyl-2-(2-chloroacetamido)benzamide]", "viability at 48 h, 25 µM": 0.33}, {"smiles": "Cc1c(C#N)c(NC(=O)CCl)n(Cc2cccs2)c1C", "note": "[4-C04, 2-chloro-N-{3-cyano-4,5-dimethyl-1-[(thiophen-2-yl)methyl]-1H-pyrrol-2-yl}acetamide]", "viability at 48 h, 25 µM": 0.255}, {"smiles": "CCN(CC)C(=O)c1ccc(NC(=O)CCl)cc1", "note": "[4-C05, 4-(2-chloroacetamido)-N,N-diethylbenzamide]", "viability at 48 h, 25 µM": 0.463}, {"smiles": "Cc1ccc(-c2cc(NC(=O)CCl)n(-c3ccccc3)n2)cc1", "note": "[4-C06, 2-chloro-N-[3-(4-methylphenyl)-1-phenyl-1H-pyrazol-5-yl]acetamide]", "viability at 48 h, 25 µM": -0.283}, {"smiles": "COc1ccc(C(C)(C)C)cc1NC(=O)CCl", "note": "[4-C07, N-(5-tert-butyl-2-methoxyphenyl)-2-chloroacetamide]", "viability at 48 h, 25 µM": 0.79}, {"smiles": "CC(Cl)C(=O)N1c2ccccc2NC(=O)C1(C)C", "note": "(stereo not shown) [4-C08, 4-(2-chloropropanoyl)-3,3-dimethyl-1,2,3,4-tetrahydroquinoxalin-2-one]", "viability at 48 h, 25 µM": 69.5}, {"smiles": "CCCc1ccc(-c2csc(NC(=O)CCl)n2)cc1", "note": "[4-C09, 2-chloro-N-[4-(4-propylphenyl)-1,3-thiazol-2-yl]acetamide]", "viability at 48 h, 25 µM": 1.34}, {"smiles": "Cc1cccc(NC(=O)c2ccccc2NC(=O)CCl)c1", "note": "[4-C10, 2-(2-chloroacetamido)-N-(3-methylphenyl)benzamide]", "viability at 48 h, 25 µM": -0.0841}, {"smiles": "O=C(CCl)Nc1ccc(N=Nc2ccccc2)cc1", "note": "[4-C11, 2-chloro-N-[4-(2-phenyldiazen-1-yl)phenyl]acetamide]", "viability at 48 h, 25 µM": 0.339}, {"smiles": "CC(Cl)C(=O)Nc1ccc(Cl)c(C(F)(F)F)c1", "note": "(stereo not shown) [4-C12, 2-chloro-N-[4-chloro-3-(trifluoromethyl)phenyl]propanamide]", "viability at 48 h, 25 µM": 51}, {"smiles": "CSc1nsc(NC(=O)CCl)n1", "note": "[4-C13, 2-chloro-N-[3-(methylsulfanyl)-1,2,4-thiadiazol-5-yl]acetamide]", "viability at 48 h, 25 µM": 63.6}, {"smiles": "CC(Cl)C(=O)Nc1ccc(Cl)cc1F", "note": "(stereo not shown) [4-C14, 2-chloro-N-(4-chloro-2-fluorophenyl)propanamide]", "viability at 48 h, 25 µM": 58.6}, {"smiles": "COc1ccc(N(CC(F)(F)F)C(=O)CCl)cc1", "note": "[4-C15, 2-chloro-N-(4-methoxyphenyl)-N-(2,2,2-trifluoroethyl)acetamide]", "viability at 48 h, 25 µM": 0.659}, {"smiles": "CC(C)c1ccc(-c2cc(NC(=O)CCl)n(-c3ccccc3)n2)cc1", "note": "[4-C16, 2-chloro-N-{1-phenyl-3-[4-(propan-2-yl)phenyl]-1H-pyrazol-5-yl}acetamide]", "viability at 48 h, 25 µM": -0.013}, {"smiles": "O=C(CCl)N(Cc1ccccc1)c1nc2c(s1)CCCC2", "note": "[4-C17, N-benzyl-2-chloro-N-(4,5,6,7-tetrahydro-1,3-benzothiazol-2-yl)acetamide]", "viability at 48 h, 25 µM": 0.212}, {"smiles": "COc1ccccc1N(CC(F)(F)F)C(=O)CCl", "note": "[4-C18, 2-chloro-N-(2-methoxyphenyl)-N-(2,2,2-trifluoroethyl)acetamide]", "viability at 48 h, 25 µM": 7.84}, {"smiles": "O=C(CCl)N1CCN(S(=O)(=O)c2cccc([N+](=O)[O-])c2)CC1", "note": "[4-C19, 2-chloro-1-[4-(3-nitrobenzenesulfonyl)piperazin-1-yl]ethan-1-one]", "viability at 48 h, 25 µM": 1.45}, {"smiles": "CCc1ccc(C(NC(=O)CCl)c2cccc(F)c2)cc1", "note": "(stereo not shown) [4-C20, 2-chloro-N-[(4-ethylphenyl)(3-fluorophenyl)methyl]acetamide]", "viability at 48 h, 25 µM": 0.508}, {"smiles": "O=C(CCl)Nc1ccc(C(=O)O)cc1[N+](=O)[O-]", "note": "[4-C21, 4-(2-chloroacetamido)-3-nitrobenzoic acid]", "viability at 48 h, 25 µM": 63.3}, {"smiles": "O=C(CCl)N1N=C(c2ccsc2)CC1c1cccc(F)c1", "note": "(stereo not shown) [4-C22, 2-chloro-1-[5-(3-fluorophenyl)-3-(thiophen-3-yl)-4,5-dihydro-1H-pyrazol-1-yl]ethan-1-one]", "viability at 48 h, 25 µM": 0.063}, {"smiles": "CN(CC(=O)Nc1ccc(Cl)cc1)C(=O)CCl", "note": "[4-D03, 2-chloro-N-{[(4-chlorophenyl)carbamoyl]methyl}-N-methylacetamide]", "viability at 48 h, 25 µM": 0.468}, {"smiles": "Cc1cccc(NC(=O)CCl)c1C", "note": "[4-D04, 2-chloro-N-(2,3-dimethylphenyl)acetamide]", "viability at 48 h, 25 µM": 1.62}, {"smiles": "CN(CC(=O)Nc1ccccc1Cl)C(=O)CCl", "note": "[4-D05, 2-chloro-N-{[(2-chlorophenyl)carbamoyl]methyl}-N-methylacetamide]", "viability at 48 h, 25 µM": 0.034}, {"smiles": "CCn1c2ccccc2c2cc(NC(=O)CCl)ccc21", "note": "[4-D06, 2-chloro-N-(9-ethyl-9H-carbazol-3-yl)acetamide]", "viability at 48 h, 25 µM": 9.48}, {"smiles": "CC1CCc2c(sc(NC(=O)CCl)c2C(=O)OC(C)C)C1", "note": "(stereo not shown) [4-D07, propan-2-yl 2-(2-chloroacetamido)-6-methyl-4,5,6,7-tetrahydro-1-benzothiophene-3-carboxylate]", "viability at 48 h, 25 µM": 73.7}, {"smiles": "O=C(CCl)Nc1cccc(S(=O)(=O)NC2=NCCCCC2)c1", "note": "[4-D08, N-{3-[(azepan-2-ylidene)sulfamoyl]phenyl}-2-chloroacetamide]", "viability at 48 h, 25 µM": 1.32}, {"smiles": "Cc1c(C#N)c(NC(=O)CCl)n(Cc2ccco2)c1C", "note": "[4-D09, 2-chloro-N-{3-cyano-1-[(furan-2-yl)methyl]-4,5-dimethyl-1H-pyrrol-2-yl}acetamide]", "viability at 48 h, 25 µM": -0.0889}, {"smiles": "Cc1ccc(Cl)c(NC(=O)CCl)c1Cl", "note": "[4-D10, 2-chloro-N-(2,6-dichloro-3-methylphenyl)acetamide]", "viability at 48 h, 25 µM": 1.7}, {"smiles": "CC(Cl)C(=O)Nc1ccccc1Cl", "note": "(stereo not shown) [4-D11, 2-chloro-N-(2-chlorophenyl)propanamide]", "viability at 48 h, 25 µM": 97.8}, {"smiles": "CC(C)CN(C(=O)CCl)C1CCS(=O)(=O)C1", "note": "(stereo not shown) [4-D12, 2-chloro-N-(1,1-dioxo-1lambda6-thiolan-3-yl)-N-(2-methylpropyl)acetamide]", "viability at 48 h, 25 µM": 2.44}, {"smiles": "CC(C)c1cc(O)nc(N2CCC(NC(=O)CCl)C2)n1", "note": "(stereo not shown) [4-D13, 2-chloro-N-{1-[4-hydroxy-6-(propan-2-yl)pyrimidin-2-yl]pyrrolidin-3-yl}acetamide]", "viability at 48 h, 25 µM": 2.02}, {"smiles": "CC(Cl)C(=O)NCCc1cccs1", "note": "(stereo not shown) [4-D14, 2-chloro-N-[2-(thiophen-2-yl)ethyl]propanamide]", "viability at 48 h, 25 µM": 111}, {"smiles": "COc1ccc(NC(=O)CCl)cc1S(=O)(=O)N1CCOCC1", "note": "[4-D15, 2-chloro-N-[4-methoxy-3-(morpholine-4-sulfonyl)phenyl]acetamide]", "viability at 48 h, 25 µM": 0.627}, {"smiles": "Cc1ccc(NC(=O)CN2CCN(C(=O)CCl)CC2)cc1", "note": "[4-D16, 2-[4-(2-chloroacetyl)piperazin-1-yl]-N-(4-methylphenyl)acetamide hydrochloride]", "viability at 48 h, 25 µM": 0.854}]}]}
